Measurements published in ChEMBL document CHEMBL1157274, “Two new maytansinoids from maytenus buchananii” (1999).

Legend:
[1] = system: KB; test: Cytotoxicity against human KB cells; assay type: functional
[2] = system: P388; test: In vivo antitumor activity against mouse P388 cells at 0.1 to 1.6 ug/kg; assay type: functional

**Q.** What does the source list for `COc1cc2cc(c1Cl)N1CC(=O)C(C)(O)C(=O)N(C)[C@@H](C)C(=O)O[C@@H](CC1=O)[C@@]1(C)O[C@H]1[C@H](C)[C@@H]1C[C@@](O)(NC(=O)O1)[C@H](OC)/C=C/C=C(\C)C2` (some centres not stated) [MAYTANBICYCLINOL]?
**A.** ED50 [1]: <1 ×10⁻⁵ ug/ml; T/C [2]: 140%
